Laboratory results as given in ChEMBL document CHEMBL3112495, “Diphenylpyridylethanamine (DPPE)-based aminoheterocycles as cholesteryl ester transfer protein inhibitors” (Bioorg Med Chem Lett, 2014).

Test system: not listed separately
Assay: AUC in hCETP/apo B-100 transgenic mouse at 30 mg/kg, po
Assay type: ADME, organism-based
Parameters: dose 30 mg/kg, route oral
Settings: plasma

**Q.** For `O=C(NC1CCCC1)N[C@@](Cc1ccccc1)(c1cc(F)cc(C(F)(F)F)c1)c1ccc(Cl)cn1`, which AUC is on record?
**A.** Its AUC is 5.71 µM·h.

**Q.** For `Fc1cc(C(F)(F)F)cc([C@@](Cc2ccccc2)(Nc2nc3c(s2)CCC3)c2ccc(Cl)cn2)c1`, which AUC is on record?
**A.** Its AUC is 8.18 µM·h.

Test system: not listed separately
Assay: Metabolic stability of the compound in rat liver microsomes assessed as compound remaining after 10 mins
Assay type: ADME
Settings: read-out: Stability

**Q.** Which remaining at 10 min does the source give for `O=C(NC1CCCC1)N[C@@](Cc1ccccc1)(c1cc(F)cc(OC(F)(F)C(F)F)c1)c1ccc(Cl)cn1` here?
**A.** Its remaining at 10 min is 12%.

**Q.** With `Fc1cc(C(F)(F)F)cc([C@@](Cc2ccccc2)(Nc2nc3c(s2)CCC3)c2ccc(Cl)cn2)c1` as the compound, how does the remaining at 10 min read?
**A.** The remaining at 10 min was 56%.

Test system: not listed separately
Assay: Metabolic stability of the compound in mouse liver microsomes assessed as compound remaining after 10 mins
Assay type: ADME, Microsome
Settings: read-out: Stability

**Q.** With `O=C(NC1CCCC1)N[C@@](Cc1ccccc1)(c1cc(F)cc(OC(F)(F)C(F)F)c1)c1ccc(Cl)cn1` as the compound, how does the remaining at 10 min read?
**A.** The remaining at 10 min was 4%.

**Q.** For `Fc1cc(C(F)(F)F)cc([C@@](Cc2ccccc2)(Nc2nc3c(s2)CCC3)c2ccc(Cl)cn2)c1`, which remaining at 10 min is on record?
**A.** Its remaining at 10 min is 33%.

Test system: not listed separately
Assay: Metabolic stability of the compound in human liver microsomes assessed as compound remaining after 10 mins
Assay type: ADME
Settings: read-out: Stability

**Q.** Which remaining at 10 min does the source give for `O=C(NC1CCCC1)N[C@@](Cc1ccccc1)(c1cc(F)cc(OC(F)(F)C(F)F)c1)c1ccc(Cl)cn1` here?
**A.** The remaining at 10 min was 10%.

**Q.** With `Fc1cc(C(F)(F)F)cc([C@@](Cc2ccccc2)(Nc2nc3c(s2)CCC3)c2ccc(Cl)cn2)c1` as the compound, how does the remaining at 10 min read?
**A.** Its remaining at 10 min is 73%.

Target: T1, Cholesteryl ester transfer protein (Homo sapiens, UniProt P11597)
T1 sequence (P11597 whole entry): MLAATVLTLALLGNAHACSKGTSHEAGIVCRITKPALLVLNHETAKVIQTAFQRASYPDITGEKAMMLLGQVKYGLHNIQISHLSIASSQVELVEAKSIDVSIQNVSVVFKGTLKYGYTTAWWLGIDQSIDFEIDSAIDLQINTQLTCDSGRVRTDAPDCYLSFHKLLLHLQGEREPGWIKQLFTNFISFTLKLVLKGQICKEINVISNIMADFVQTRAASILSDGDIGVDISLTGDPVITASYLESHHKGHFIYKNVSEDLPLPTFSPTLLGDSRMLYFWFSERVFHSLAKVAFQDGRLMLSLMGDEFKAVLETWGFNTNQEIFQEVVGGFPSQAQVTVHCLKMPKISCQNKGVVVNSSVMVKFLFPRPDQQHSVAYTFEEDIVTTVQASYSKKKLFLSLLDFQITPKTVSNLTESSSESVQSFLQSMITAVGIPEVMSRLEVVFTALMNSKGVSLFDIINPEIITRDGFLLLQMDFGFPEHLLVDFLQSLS
Assay: Inhibition of human recombinant CETP using [3H]-CE/HDL by scintillation proximity assay
Settings: not given

**Q.** For `Fc1cc(C(F)(F)F)cc([C@@](Cc2ccccc2)(Nc2nc3c(s2)CCC3)c2ccc(Cl)cn2)c1`, which IC50 is on record?
**A.** The IC50 was 0.04 µM.

Target: T1, Cholesteryl ester transfer protein
Assay: Inhibition of CETP in human whole plasma using [3H]-CE/HDL after 10 mins
Settings: not given

**Q.** For `Fc1cc(C(F)(F)F)cc([C@@](Cc2ccccc2)(Nc2nc3c(s2)CCC3)c2ccc(Cl)cn2)c1`, which IC50 is on record?
**A.** The IC50 was 8.2 µM.

Target: T2, Cytochrome P450 3A4 (Homo sapiens, UniProt P08684)
Assay: Inhibition of CYP3A4 (unknown origin) using 7-benzyloxy-4-trifluoromethylcoumarin as substrate
Assay type: ADME
Settings: not given

T2 sequence (P08684 whole entry): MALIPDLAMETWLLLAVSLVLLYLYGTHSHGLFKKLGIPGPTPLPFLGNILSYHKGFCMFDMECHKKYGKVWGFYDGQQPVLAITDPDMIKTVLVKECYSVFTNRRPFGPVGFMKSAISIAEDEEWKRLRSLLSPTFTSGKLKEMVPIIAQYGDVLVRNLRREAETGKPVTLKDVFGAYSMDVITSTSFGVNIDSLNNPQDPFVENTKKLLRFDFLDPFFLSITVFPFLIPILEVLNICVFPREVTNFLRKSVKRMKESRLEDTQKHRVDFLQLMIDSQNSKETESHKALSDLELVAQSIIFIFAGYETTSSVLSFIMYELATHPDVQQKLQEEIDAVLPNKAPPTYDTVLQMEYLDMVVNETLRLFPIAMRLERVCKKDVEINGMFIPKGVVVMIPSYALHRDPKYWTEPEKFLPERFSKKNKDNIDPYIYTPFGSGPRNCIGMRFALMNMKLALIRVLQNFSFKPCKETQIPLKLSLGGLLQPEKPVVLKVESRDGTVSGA

**Q.** With `O=C(NC1CCCC1)N[C@@](Cc1ccccc1)(c1cc(F)cc(OC(F)(F)C(F)F)c1)c1ccc(Cl)cn1` as the compound, how does the IC50 read?
**A.** The IC50 was 8.8 µM.

Target: T2, Cytochrome P450 3A4
Assay: Inhibition of CYP3A4 (unknown origin) using benzyloxyresorufin as substrate
Assay type: ADME
Settings: not given

**Q.** With `O=C(NC1CCCC1)N[C@@](Cc1ccccc1)(c1cc(F)cc(OC(F)(F)C(F)F)c1)c1ccc(Cl)cn1` as the compound, how does the IC50 read?
**A.** The IC50 was 3.6 µM.

Target: Cytochrome P450 2D6 (Homo sapiens, UniProt P10635)
Assay: Inhibition of CYP2D6 (unknown origin)
Assay type: ADME
Settings: not given

Sequence of Cytochrome P450 2D6 (P10635 whole entry): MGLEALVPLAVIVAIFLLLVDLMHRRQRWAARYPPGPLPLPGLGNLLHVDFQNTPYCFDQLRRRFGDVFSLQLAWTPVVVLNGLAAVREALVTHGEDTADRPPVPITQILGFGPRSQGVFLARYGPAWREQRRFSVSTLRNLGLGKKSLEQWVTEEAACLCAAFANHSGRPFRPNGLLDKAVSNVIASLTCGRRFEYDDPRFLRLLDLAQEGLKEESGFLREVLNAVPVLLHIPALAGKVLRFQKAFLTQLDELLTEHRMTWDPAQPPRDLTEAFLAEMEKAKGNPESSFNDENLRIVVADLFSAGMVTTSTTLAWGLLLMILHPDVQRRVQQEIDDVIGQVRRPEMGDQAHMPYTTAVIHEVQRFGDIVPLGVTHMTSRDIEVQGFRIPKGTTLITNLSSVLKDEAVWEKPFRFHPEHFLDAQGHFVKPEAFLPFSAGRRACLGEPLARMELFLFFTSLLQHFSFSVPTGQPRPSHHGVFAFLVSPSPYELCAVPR

**Q.** Which IC50 does the source give for `O=C(NC1CCCC1)N[C@@](Cc1ccccc1)(c1cc(F)cc(OC(F)(F)C(F)F)c1)c1ccc(Cl)cn1` here?
**A.** Its IC50 is 15 µM.

Target: Cytochrome P450 2C19 (Homo sapiens, UniProt P33261)
Assay: Inhibition of CYP2C19 (unknown origin)
Assay type: ADME
Settings: not given

Sequence of Cytochrome P450 2C19 (P33261 whole entry): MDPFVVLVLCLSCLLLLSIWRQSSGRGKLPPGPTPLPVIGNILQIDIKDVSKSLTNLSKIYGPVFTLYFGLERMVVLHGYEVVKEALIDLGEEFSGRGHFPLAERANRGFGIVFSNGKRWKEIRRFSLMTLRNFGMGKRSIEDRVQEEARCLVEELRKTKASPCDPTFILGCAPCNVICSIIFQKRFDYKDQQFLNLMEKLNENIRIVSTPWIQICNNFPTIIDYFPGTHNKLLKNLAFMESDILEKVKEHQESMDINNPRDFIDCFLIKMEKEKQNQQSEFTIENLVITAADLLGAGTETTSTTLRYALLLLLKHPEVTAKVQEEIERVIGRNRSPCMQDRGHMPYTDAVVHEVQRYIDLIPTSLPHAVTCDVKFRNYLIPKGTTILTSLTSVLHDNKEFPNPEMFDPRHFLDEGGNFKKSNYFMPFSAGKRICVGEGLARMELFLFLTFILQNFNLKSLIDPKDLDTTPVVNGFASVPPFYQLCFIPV

**Q.** For `O=C(NC1CCCC1)N[C@@](Cc1ccccc1)(c1cc(F)cc(OC(F)(F)C(F)F)c1)c1ccc(Cl)cn1`, which IC50 is on record?
**A.** The IC50 was 17 µM.

Target: Cytochrome P450 2C9 (Homo sapiens, UniProt P11712)
Assay: Inhibition of CYP2C9 (unknown origin)
Assay type: ADME
Settings: not given

Sequence of Cytochrome P450 2C9 (P11712 whole entry): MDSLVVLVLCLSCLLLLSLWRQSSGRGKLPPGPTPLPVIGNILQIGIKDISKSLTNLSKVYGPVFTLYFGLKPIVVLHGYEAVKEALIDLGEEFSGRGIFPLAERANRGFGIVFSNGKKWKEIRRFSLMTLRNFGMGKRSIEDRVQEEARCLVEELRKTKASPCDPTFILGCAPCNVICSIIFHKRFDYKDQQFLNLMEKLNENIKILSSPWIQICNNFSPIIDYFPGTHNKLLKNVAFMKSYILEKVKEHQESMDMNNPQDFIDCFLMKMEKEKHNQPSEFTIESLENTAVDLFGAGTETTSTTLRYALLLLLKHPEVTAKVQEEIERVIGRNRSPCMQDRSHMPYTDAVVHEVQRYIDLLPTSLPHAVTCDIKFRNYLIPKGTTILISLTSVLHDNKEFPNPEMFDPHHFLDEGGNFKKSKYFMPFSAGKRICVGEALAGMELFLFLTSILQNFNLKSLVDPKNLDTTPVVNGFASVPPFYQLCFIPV

**Q.** For `O=C(NC1CCCC1)N[C@@](Cc1ccccc1)(c1cc(F)cc(OC(F)(F)C(F)F)c1)c1ccc(Cl)cn1`, which IC50 is on record?
**A.** Its IC50 is 4.4 µM.

Target: T3, Cytochrome P450 1A2 (Homo sapiens, UniProt P05177)
T3 sequence (P05177 whole entry): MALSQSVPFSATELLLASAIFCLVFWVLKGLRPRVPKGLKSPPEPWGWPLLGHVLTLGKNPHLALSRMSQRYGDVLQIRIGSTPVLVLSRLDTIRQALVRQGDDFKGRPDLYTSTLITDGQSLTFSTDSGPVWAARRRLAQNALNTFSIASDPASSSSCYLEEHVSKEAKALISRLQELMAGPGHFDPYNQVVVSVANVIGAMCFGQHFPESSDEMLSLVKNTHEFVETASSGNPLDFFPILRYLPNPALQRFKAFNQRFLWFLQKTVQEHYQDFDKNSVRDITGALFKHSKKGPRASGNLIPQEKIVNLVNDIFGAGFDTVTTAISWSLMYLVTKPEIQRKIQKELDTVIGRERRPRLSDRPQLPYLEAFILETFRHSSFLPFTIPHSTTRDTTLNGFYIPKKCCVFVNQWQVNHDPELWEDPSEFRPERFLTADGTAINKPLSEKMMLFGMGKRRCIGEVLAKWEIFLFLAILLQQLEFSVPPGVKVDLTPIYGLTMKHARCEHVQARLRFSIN
Assay: Inhibition of CYP1A2 (unknown origin)
Assay type: ADME
Settings: not given

**Q.** Which IC50 does the source give for `O=C(NC1CCCC1)N[C@@](Cc1ccccc1)(c1cc(F)cc(OC(F)(F)C(F)F)c1)c1ccc(Cl)cn1` here?
**A.** Its IC50 is 40 µM.

Target: T4, Nuclear receptor subfamily 1 group I member 2 (Homo sapiens, UniProt O75469)
T4 sequence (O75469 whole entry): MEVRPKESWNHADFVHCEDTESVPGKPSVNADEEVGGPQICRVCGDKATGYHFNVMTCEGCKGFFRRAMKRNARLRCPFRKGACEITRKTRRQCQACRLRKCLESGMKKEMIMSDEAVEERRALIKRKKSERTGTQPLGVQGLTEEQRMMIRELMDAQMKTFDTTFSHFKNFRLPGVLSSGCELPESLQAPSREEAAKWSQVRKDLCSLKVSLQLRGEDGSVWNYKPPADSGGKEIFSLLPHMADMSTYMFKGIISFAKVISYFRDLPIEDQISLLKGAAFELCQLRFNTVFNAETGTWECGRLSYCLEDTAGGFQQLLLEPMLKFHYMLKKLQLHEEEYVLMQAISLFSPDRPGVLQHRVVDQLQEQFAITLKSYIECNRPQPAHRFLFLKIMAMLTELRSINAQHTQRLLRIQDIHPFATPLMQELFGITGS
Assay: Activation of PXR (unknown origin)
Settings: not given

**Q.** Which EC60 does the source give for `O=C(NC1CCCC1)N[C@@](Cc1ccccc1)(c1cc(F)cc(OC(F)(F)C(F)F)c1)c1ccc(Cl)cn1` here?
**A.** The EC60 was 0.7 µM.

Target: T5, PXR (Homo sapiens, UniProt O75469)
T5 sequence (O75469 whole entry): T4 sequence (O75469 whole entry)
Assay: Activation of PXR (unknown origin) relative to rifampicin
Settings: not given

**Q.** With `O=C(NC1CCCC1)N[C@@](Cc1ccccc1)(c1cc(F)cc(OC(F)(F)C(F)F)c1)c1ccc(Cl)cn1` as the compound, how does the Emax read?
**A.** Its Emax is 88%.

Test system: Mus musculus
Assay: Inhibition of CETP in hCETP/apo B-100 transgenic mouse at 30 mg/kg, po after 8 hrs
Assay type: functional
Settings: not given

**Q.** Which inhibition in vivo at 30 mg/kg does the source give for `O=C(NC1CCCC1)N[C@@](Cc1ccccc1)(c1cc(F)cc(C(F)(F)F)c1)c1ccc(Cl)cn1` here?
**A.** The inhibition in vivo at 30 mg/kg was 56%.

**Q.** For `Fc1cc(C(F)(F)F)cc([C@@](Cc2ccccc2)(Nc2nc3c(s2)CCC3)c2ccc(Cl)cn2)c1`, which inhibition in vivo at 30 mg/kg is on record?
**A.** Its inhibition in vivo at 30 mg/kg is 26%.

Test system: not listed separately
Assay: Plasma concentration in hCETP/apo B-100 transgenic mouse at 30 mg/kg, po after 8 hrs
Assay type: ADME, organism-based
Parameters: dose 30 mg/kg, route oral
Settings: not given

**Q.** Which concentration at 8 h does the source give for `Fc1cc(C(F)(F)F)cc([C@@](Cc2ccccc2)(Nc2nc3c(s2)CCC3)c2ccc(Cl)cn2)c1` here?
**A.** Its concentration at 8 h is 142 nM.

Test system: not listed separately
Assay: Plasma concentration in hCETP/apo B-100 transgenic mouse at 30 mg/kg, po after 4 hrs
Assay type: ADME, organism-based
Parameters: dose 30 mg/kg, route oral
Settings: not given

**Q.** For `O=C(NC1CCCC1)N[C@@](Cc1ccccc1)(c1cc(F)cc(C(F)(F)F)c1)c1ccc(Cl)cn1`, which concentration at 4 h is on record?
**A.** The concentration at 4 h was 1010 nM.

**Q.** With `Fc1cc(C(F)(F)F)cc([C@@](Cc2ccccc2)(Nc2nc3c(s2)CCC3)c2ccc(Cl)cn2)c1` as the compound, how does the concentration at 4 h read?
**A.** The concentration at 4 h was 1240 nM.

Test system: not listed separately
Assay: Plasma concentration in hCETP/apo B-100 transgenic mouse at 30 mg/kg, po after 2 hrs
Assay type: ADME, organism-based
Parameters: dose 30 mg/kg, route oral
Settings: not given

**Q.** Which concentration at 2 h does the source give for `O=C(NC1CCCC1)N[C@@](Cc1ccccc1)(c1cc(F)cc(C(F)(F)F)c1)c1ccc(Cl)cn1` here?
**A.** Its concentration at 2 h is 1750 nM.

**Q.** With `Fc1cc(C(F)(F)F)cc([C@@](Cc2ccccc2)(Nc2nc3c(s2)CCC3)c2ccc(Cl)cn2)c1` as the compound, how does the concentration at 2 h read?
**A.** The concentration at 2 h was 2530 nM.
